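Dose response: 5 concentrations. Exposure: 48 h. Format: 96-well plates. Endpoint: linear interpolation; highest concentration if not reached. GI50 marks 50% less growth.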 Active and inactive are the calls of the source. No stated cut-off is given here; in the data, active = GI50 up to about 1.1 µM and inactive = higher.
Legend:
Test in all cases: DTP human tumour cell line panel, 48 h
HOP-62 = test system: HOP-62
NCI-H460 = test system: NCI-H460
ACHN = test system: ACHN
TK-10 = test system: TK-10
COLO 205 = test system: COLO 205
SN12C = test system: SN12C
SK-MEL-5 = test system: SK-MEL-5
OVCAR-8 = test system: OVCAR-8
786-0 = test system: 786-0
HCT-116 = test system: HCT-116
NCI-H23 = test system: NCI-H23
SK-MEL-28 = test system: SK-MEL-28
UACC-62 = test system: UACC-62
RPMI-8226 = test system: RPMI-8226
SK-MEL-2 = test system: SK-MEL-2
HCC 2998 = test system: HCC 2998
Malme-3M = test system: Malme-3M
LOX IMVI = test system: LOX IMVI
DLD-1 = test system: DLD-1
KM-20L2 = test system: KM-20L2
A549 = test system: A549
HOP-92 = test system: HOP-92
RXF 393 = test system: RXF 393
KM12 = test system: KM12
EKVX = test system: EKVX
OVCAR-3 = test system: OVCAR-3
HL-60 = test system: HL-60
LXFL 529 = test system: LXFL 529
M14 = test system: M14
DMS-273 = test system: DMS-273
SF-295 = test system: SF-295
SNB-75 = test system: SNB-75
XF498 = test system: XF498
HOP-18 = test system: HOP-18
SW-620 = test system: SW-620
CCRF-CEM = test system: CCRF-CEM
UACC-257 = test system: UACC-257
NCI-H226 = test system: NCI-H226
UO-31 = test system: UO-31
NCI-H522 = test system: NCI-H522
SF-539 = test system: SF-539
MOLT-4 = test system: MOLT-4
SR = test system: SR
RXF 631 = test system: RXF 631
OVCAR-5 = test system: OVCAR-5
HT-29 = test system: HT-29
K562 = test system: K562
IGROV-1 = test system: IGROV-1
OVCAR-4 = test system: OVCAR-4
SNB-19 = test system: SNB-19
M19-MEL = test system: M19-MEL
HCT-15 = test system: HCT-15
U-251 = test system: U-251
SK-OV-3 = test system: SK-OV-3
CAKI-1 = test system: CAKI-1
A498 = test system: A498
SNB-78 = test system: SNB-78
SF-268 = test system: SF-268

Measured: GI50

COC(=O)c1sc(=O)n(-c2ccccc2)c1SCc1ccccc1
> 100 µM: HCT-15
inactive: HOP-62 > 100 µM | NCI-H460 > 100 µM | ACHN > 100 µM | TK-10 > 100 µM | COLO 205 > 100 µM | SN12C > 100 µM | SK-MEL-5 > 100 µM | OVCAR-8 > 100 µM | 786-0 > 100 µM | HCT-116 > 100 µM | NCI-H23 > 100 µM | SK-MEL-28 > 100 µM | UACC-62 > 100 µM | RPMI-8226 > 100 µM | SK-MEL-2 > 100 µM | HCC 2998 > 100 µM | Malme-3M > 100 µM | LOX IMVI > 100 µM | DLD-1 > 100 µM | KM-20L2 > 100 µM | A549 > 100 µM | HOP-92 30.1 µM | RXF 393 > 100 µM | KM12 > 100 µM | EKVX > 100 µM | OVCAR-3 > 100 µM | HL-60 > 100 µM | LXFL 529 > 100 µM | M14 > 100 µM | DMS-273 > 100 µM | SF-295 > 100 µM | SNB-75 > 100 µM | XF498 > 100 µM | HOP-18 > 100 µM | SW-620 > 100 µM | CCRF-CEM > 100 µM | UACC-257 > 100 µM | NCI-H226 > 100 µM | UO-31 > 100 µM | NCI-H522 > 100 µM | SF-539 > 100 µM | MOLT-4 > 100 µM | SR > 100 µM | RXF 631 > 100 µM | OVCAR-5 > 100 µM | HT-29 > 100 µM | K562 > 100 µM | IGROV-1 > 100 µM | OVCAR-4 > 100 µM | SNB-19 > 100 µM | M19-MEL > 100 µM | U-251 > 100 µM | SK-OV-3 > 100 µM

Cc1ccc(S(=O)(=O)CNC(=S)CCCC(=S)NCS(=O)(=O)c2ccc(C)cc2)cc1
53.8 µM: HCT-15
inactive: HOP-62 > 100 µM | NCI-H460 > 100 µM | TK-10 > 100 µM | COLO 205 > 100 µM | SN12C > 100 µM | SK-MEL-5 79.1 µM | OVCAR-8 > 100 µM | 786-0 > 100 µM | HCT-116 49 µM | NCI-H23 35.4 µM | UACC-62 44.3 µM | RPMI-8226 21.4 µM | HCC 2998 > 100 µM | Malme-3M 50.7 µM | CAKI-1 > 100 µM | LOX IMVI 18.6 µM | DLD-1 > 100 µM | KM-20L2 > 100 µM | A498 > 100 µM | A549 > 100 µM | HOP-92 20.2 µM | RXF 393 79.4 µM | KM12 > 100 µM | EKVX > 100 µM | OVCAR-3 48.9 µM | HL-60 16.1 µM | LXFL 529 44.9 µM | M14 > 100 µM | DMS-273 44.2 µM | SF-295 > 100 µM | SNB-75 > 100 µM | XF498 > 100 µM | SW-620 53.5 µM | CCRF-CEM 21.3 µM | UACC-257 > 100 µM | NCI-H226 > 100 µM | SNB-78 78.9 µM | UO-31 35.2 µM | NCI-H522 41.4 µM | SF-268 > 100 µM | SF-539 > 100 µM | MOLT-4 22.2 µM | SR 32.7 µM | RXF 631 41 µM | OVCAR-5 > 100 µM | HT-29 > 100 µM | K562 53.6 µM | IGROV-1 > 100 µM | OVCAR-4 > 100 µM | SNB-19 > 100 µM | M19-MEL > 100 µM | U-251 59 µM | SK-OV-3 > 100 µM

COC(=O)[C@]1(C)CCC[C@@]2(C)C1CCC1=CC3(C(C)C)CCC12OO3 (some centres undefined)
40 µM: HCT-15
inactive: HOP-62 > 100 µM | NCI-H460 58.6 µM | ACHN 63.4 µM | TK-10 > 100 µM | COLO 205 > 100 µM | SN12C 43.2 µM | SK-MEL-5 31.1 µM | OVCAR-8 63.8 µM | 786-0 85.3 µM | HCT-116 42 µM | NCI-H23 77.1 µM | UACC-62 57 µM | RPMI-8226 43.1 µM | SK-MEL-2 46.9 µM | HCC 2998 88.5 µM | Malme-3M 36.2 µM | CAKI-1 80.5 µM | LOX IMVI 81.1 µM | DLD-1 50.1 µM | KM-20L2 94 µM | A498 18.7 µM | A549 44 µM | KM12 > 100 µM | EKVX 90.6 µM | OVCAR-3 > 100 µM | HL-60 15.9 µM | LXFL 529 31.4 µM | M14 74 µM | SF-295 46.5 µM | SW-620 > 100 µM | CCRF-CEM 31.2 µM | UACC-257 31.5 µM | NCI-H226 43.7 µM | SNB-78 51.3 µM | UO-31 41 µM | NCI-H522 40.5 µM | SF-268 > 100 µM | SF-539 > 100 µM | MOLT-4 20 µM | SR 27.9 µM | RXF 631 > 100 µM | OVCAR-5 > 100 µM | HT-29 34.4 µM | K562 27.7 µM | IGROV-1 > 100 µM | OVCAR-4 51.3 µM | SNB-19 > 100 µM | M19-MEL 32.2 µM | U-251 > 100 µM | SK-OV-3 > 100 µM

Reference: ChEMBL document CHEMBL1201862, “PubChem BioAssay data set” (2004)
